{"source": "patent US6914045B2", "about": "“Glycopeptide antibiotics” (Wyeth Holdings Corporation, priority 2001, dated 2005)", "key": {"[1]": {"system": "Enterococcus faecalis (GC 6189)", "assay": "acute lethal infection in mice", "assay_type": "in vivo", "details": "female CD-1 mice, intraperitoneal challenge, intravenous 30 min. after infection, 7 day survival", "how_it_was_run": "(§1)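 Intraperitoneal challenge of female CD-1 mice with a bacterial dose lethal to untreated animals within 24-48 hr; single iv treatment 30 min later, 5 mice per dose level. Survival is scored at day 7 and pooled from three experiments to give the median effective dose.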"}, "[2]": {"system": "Staphylococcus aureus-SMITH (GC 4543)", "assay": "acute lethal infection in mice", "assay_type": "in vivo", "details": "acute lethal infection, female CD-1 mice, intraperitoneal challenge, intravenous 30 min. after infection, 7 day survival", "how_it_was_run": "as §1"}, "Staphylococcus sp.": {"system": "Staphylococcus sp.", "assay": "in vitro antibacterial evaluation, MIC by broth dilution", "assay_type": "cell-based", "details": "broth dilution, 18 hours at 35° C.", "how_it_was_run": "(§2)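 MIC, the lowest antibiotic concentration preventing growth, was read across 64-0.06 μg/mL with 5×10^5 CFU/mL inoculum. Method followed NCCLS M7-A2 broth dilution using Mueller-Hinton II; Gram-positive strains covered recent methicillin-, penicillin- and/or vancomycin-resistant clinical isolates.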"}, "Streptococcus sp.": {"system": "Streptococcus sp.", "assay": "in vitro antibacterial evaluation, MIC by broth dilution", "assay_type": "cell-based", "details": "broth dilution, 18 hours at 35° C.", "how_it_was_run": "as §2"}, "Enterococcus sp.": {"system": "Enterococcus sp.", "assay": "in vitro antibacterial evaluation, MIC by broth dilution", "assay_type": "cell-based", "details": "broth dilution, 18 hours at 35° C.", "how_it_was_run": "as §2"}, "Escherichia coli": {"system": "Escherichia coli", "assay": "in vitro antibacterial evaluation, MIC by broth dilution", "assay_type": "cell-based", "details": "18 hours at 35° C.", "how_it_was_run": "as §2"}}}
{"compound": "CC(c1ccccc1)C1NC(=O)CNC(=O)C(CO)NC(=O)C(C(O)C2CNC(=N)N2C2OC(CO)C(O)C(O)C2O)NC(=O)C(C(O)C2CNC(=N)N2)NC(=O)C(Cc2ccc(OC3OC(CO)C(OC4OC5COC(Cc6ccc(F)cc6)OC5C(O)C4O)C(O)C3O)cc2)NC1=O", "note": "(stereo not drawn) [Example 121, Cyclo[glycyl-β-methylphenylalanyl-O-[4-O-[4,6-O-(4-fluorophenethylidene)hexopyranosyl]-hexopyranosyl]tyrosyl-3-(2-iminoimidazolidin-4-yl)seryl-3-(3-hexopyranosyl-2-iminoimidazolidin-4-yl)serylseryl]]", "values": [{"measurement": "median effective dose (ED50), Enterococcus faecalis (GC 6189)", "setting": "[1]", "result": 0.5, "unit": "mg/kg"}, {"measurement": "median effective dose (ED50), Staphylococcus aureus-SMITH (GC 4543)", "setting": "[2]", "result": 0.32, "unit": "mg/kg"}, {"measurement": "MIC Coagulase Negative Staphylococcus (GC 4547)", "setting": "Staphylococcus sp.", "result": 1, "unit": "µg/mL"}, {"measurement": "MIC Coagulase Negative Staphylococcus (GC 4548)", "setting": "Staphylococcus sp.", "result": 0.5, "unit": "µg/mL"}, {"measurement": "MIC Coagulase Negative Staphylococcus (GC 4549)", "setting": "Staphylococcus sp.", "result": 0.5, "unit": "µg/mL"}, {"measurement": "MIC Coagulase Negative Staphylococcus (GC 4551)", "setting": "Staphylococcus sp.", "result": 2, "unit": "µg/mL"}, {"measurement": "MIC Coagulase Negative Staphylococcus (GC 6257)", "setting": "Staphylococcus sp.", "result": 1, "unit": "µg/mL"}, {"measurement": "MIC Staphylococcus aureus (ATCC 29213)", "setting": "Staphylococcus sp.", "result": 1, "unit": "µg/mL"}, {"measurement": "MIC Staphylococcus aureus (GC 1131)", "setting": "Staphylococcus sp.", "result": 2, "unit": "µg/mL"}, {"measurement": "MIC Staphylococcus aureus (GC 3051)", "setting": "Staphylococcus sp.", "result": 1, "unit": "µg/mL"}, {"measurement": "MIC Staphylococcus aureus (GC 3053)", "setting": "Staphylococcus sp.", "result": 1, "unit": "µg/mL"}, {"measurement": "MIC Staphylococcus aureus (GC 4541)", "setting": "Staphylococcus sp.", "result": 1, "unit": "µg/mL"}, {"measurement": "MIC Staphylococcus aureus (GC 4542)", "setting": "Staphylococcus sp.", "result": 1, "unit": "µg/mL"}, {"measurement": "MIC Staphylococcus aureus (GC 4544)", "setting": "Staphylococcus sp.", "result": 2, "unit": "µg/mL"}, {"measurement": "MIC Staphylococcus aureus (GC 4545)", "setting": "Staphylococcus sp.", "result": 2, "unit": "µg/mL"}, {"measurement": "MIC Staphylococcus aureus-SMITH (GC 4543)", "setting": "Staphylococcus sp.", "result": 1, "unit": "µg/mL"}, {"measurement": "MIC Staphylococcus haemolyticus (GC 4546)", "setting": "Staphylococcus sp.", "result": 1, "unit": "µg/mL"}, {"measurement": "MIC Staphylococcus aureus (GC 1131)", "setting": "Staphylococcus sp.; inoculum 5×10^5 CFU/mL, strain GC 1131", "result": 2, "unit": "µg/mL"}, {"measurement": "MIC Staphylococcus aureus (ATCC 29213)", "setting": "Staphylococcus sp.; strain ATCC 29213", "result": 1, "unit": "µg/mL"}, {"measurement": "MIC Staphylococcus aureus (GC 3051)", "setting": "Staphylococcus sp.; strain GC 3051", "result": 1, "unit": "µg/mL"}, {"measurement": "MIC Staphylococcus aureus (GC 3053)", "setting": "Staphylococcus sp.; strain GC 3053", "result": 1, "unit": "µg/mL"}, {"measurement": "MIC Staphylococcus aureus (GC 4541)", "setting": "Staphylococcus sp.; strain GC 4541", "result": 1, "unit": "µg/mL"}, {"measurement": "MIC Staphylococcus aureus (GC 4542)", "setting": "Staphylococcus sp.; strain GC 4542", "result": 1, "unit": "µg/mL"}, {"measurement": "MIC Staphylococcus aureus (GC 4544)", "setting": "Staphylococcus sp.; strain GC 4544", "result": 2, "unit": "µg/mL"}, {"measurement": "MIC Staphylococcus aureus (GC 4545)", "setting": "Staphylococcus sp.; strain GC 4545", "result": 2, "unit": "µg/mL"}, {"measurement": "MIC Staphylococcus haemolyticus (GC 4546)", "setting": "Staphylococcus sp.; strain GC 4546", "result": 1, "unit": "µg/mL"}, {"measurement": "MIC Coagulase Negative Staphylococcus (GC 4547)", "setting": "Staphylococcus sp.; strain GC 4547", "result": 1, "unit": "µg/mL"}, {"measurement": "MIC Coagulase Negative Staphylococcus (GC 4548)", "setting": "Staphylococcus sp.; strain GC 4548", "result": 0.5, "unit": "µg/mL"}, {"measurement": "MIC Coagulase Negative Staphylococcus (GC 4549)", "setting": "Staphylococcus sp.; strain GC 4549", "result": 0.5, "unit": "µg/mL"}, {"measurement": "MIC Coagulase Negative Staphylococcus (GC 4551)", "setting": "Staphylococcus sp.; strain GC 4551", "result": 2, "unit": "µg/mL"}, {"measurement": "MIC Coagulase Negative Staphylococcus (GC 6257)", "setting": "Staphylococcus sp.; strain GC 6257", "result": 1, "unit": "µg/mL"}, {"measurement": "MIC Staphylococcus aureus-SMITH (GC 4543)", "setting": "Staphylococcus sp.; strain SMITH GC 4543", "result": 1, "unit": "µg/mL"}, {"measurement": "MIC Streptococcus agalactiae (GC 4564)", "setting": "Streptococcus sp.; Streptococcus agalactiae (GC 4564)", "result": 0.25, "unit": "µg/mL"}, {"measurement": "MIC Streptococcus pneumoniae (ATCC 6301)", "setting": "Streptococcus sp.; Streptococcus pneumoniae (ATCC 6301)", "result": "<0.06", "unit": "µg/mL"}, {"measurement": "MIC Streptococcus pneumoniae (GC 1894)", "setting": "Streptococcus sp.; Streptococcus pneumoniae (GC 1894)", "result": "<0.06", "unit": "µg/mL"}, {"measurement": "MIC Streptococcus pneumoniae (GC 4565)", "setting": "Streptococcus sp.; Streptococcus pneumoniae (GC 4565)", "result": "<0.06", "unit": "µg/mL"}, {"measurement": "MIC Streptococcus pyogenes (GC 4563)", "setting": "Streptococcus sp.; Streptococcus pyogenes (GC 4563)", "result": 0.25, "unit": "µg/mL"}, {"measurement": "MIC Streptococcus pneumoniae (ATCC 6301)", "setting": "Streptococcus sp.; strain ATCC 6301", "result": "<0.06", "unit": "µg/mL"}, {"measurement": "MIC Streptococcus pneumoniae (GC 1894)", "setting": "Streptococcus sp.; strain GC 1894", "result": "<0.06", "unit": "µg/mL"}, {"measurement": "MIC Streptococcus pyogenes (GC 4563)", "setting": "Streptococcus sp.; strain GC 4563", "result": 0.25, "unit": "µg/mL"}, {"measurement": "MIC Streptococcus agalactiae (GC 4564)", "setting": "Streptococcus sp.; strain GC 4564", "result": 0.25, "unit": "µg/mL"}, {"measurement": "MIC Streptococcus pneumoniae (GC 4565)", "setting": "Streptococcus sp.; strain GC 4565", "result": "<0.06", "unit": "µg/mL"}, {"measurement": "MIC Enterococcus avium (GC 4558)", "setting": "Enterococcus sp.; Enterococcus avium (GC 4558)", "result": 4, "unit": "µg/mL"}, {"measurement": "MIC Enterococcus faecalis (ATCC 29212)", "setting": "Enterococcus sp.; Enterococcus faecalis (ATCC 29212)", "result": 2, "unit": "µg/mL"}, {"measurement": "MIC Enterococcus faecalis (GC 2242)", "setting": "Enterococcus sp.; Enterococcus faecalis (GC 2242)", "result": 2, "unit": "µg/mL"}, {"measurement": "MIC Enterococcus faecalis (GC 2691)", "setting": "Enterococcus sp.; Enterococcus faecalis (GC 2691)", "result": 4, "unit": "µg/mL"}, {"measurement": "MIC Enterococcus faecalis (GC 3059)", "setting": "Enterococcus sp.; Enterococcus faecalis (GC 3059)", "result": 2, "unit": "µg/mL"}, {"measurement": "MIC Enterococcus faecalis (GC 4552)", "setting": "Enterococcus sp.; Enterococcus faecalis (GC 4552)", "result": 2, "unit": "µg/mL"}, {"measurement": "MIC Enterococcus faecalis (GC 4553)", "setting": "Enterococcus sp.; Enterococcus faecalis (GC 4553)", "result": 4, "unit": "µg/mL"}, {"measurement": "MIC Enterococcus faecalis (GC 4554)", "setting": "Enterococcus sp.; Enterococcus faecalis (GC 4554)", "result": 2, "unit": "µg/mL"}, {"measurement": "MIC Enterococcus faecalis (GC 6189)", "setting": "Enterococcus sp.; Enterococcus faecalis (GC 6189)", "result": 2, "unit": "µg/mL"}, {"measurement": "MIC Enterococcus faecium (GC 2243)", "setting": "Enterococcus sp.; Enterococcus faecium (GC 2243)", "result": 2, "unit": "µg/mL"}, {"measurement": "MIC Enterococcus faecium (GC 4556)", "setting": "Enterococcus sp.; Enterococcus faecium (GC 4556)", "result": 2, "unit": "µg/mL"}, {"measurement": "MIC Enterococcus faecium (GC 4557)", "setting": "Enterococcus sp.; Enterococcus faecium (GC 4557)", "result": 2, "unit": "µg/mL"}, {"measurement": "MIC Enterococcus faecalis (ATCC 29212)", "setting": "Enterococcus sp.; strain ATCC 29212", "result": 2, "unit": "µg/mL"}, {"measurement": "MIC Enterococcus faecalis (GC 2242)", "setting": "Enterococcus sp.; strain GC 2242", "result": 2, "unit": "µg/mL"}, {"measurement": "MIC Enterococcus faecium (GC 2243)", "setting": "Enterococcus sp.; strain GC 2243", "result": 2, "unit": "µg/mL"}, {"measurement": "MIC Enterococcus faecalis (GC 2691)", "setting": "Enterococcus sp.; strain GC 2691", "result": 4, "unit": "µg/mL"}, {"measurement": "MIC Enterococcus faecalis (GC 3059)", "setting": "Enterococcus sp.; strain GC 3059", "result": 2, "unit": "µg/mL"}, {"measurement": "MIC Enterococcus faecalis (GC 4552)", "setting": "Enterococcus sp.; strain GC 4552", "result": 2, "unit": "µg/mL"}, {"measurement": "MIC Enterococcus faecalis (GC 4553)", "setting": "Enterococcus sp.; strain GC 4553", "result": 4, "unit": "µg/mL"}, {"measurement": "MIC Enterococcus faecalis (GC 4554)", "setting": "Enterococcus sp.; strain GC 4554", "result": 2, "unit": "µg/mL"}, {"measurement": "MIC Enterococcus faecium (GC 4556)", "setting": "Enterococcus sp.; strain GC 4556", "result": 2, "unit": "µg/mL"}, {"measurement": "MIC Enterococcus faecium (GC 4557)", "setting": "Enterococcus sp.; strain GC 4557", "result": 2, "unit": "µg/mL"}, {"measurement": "MIC Enterococcus avium (GC 4558)", "setting": "Enterococcus sp.; strain GC 4558", "result": 4, "unit": "µg/mL"}, {"measurement": "MIC Enterococcus faecalis (GC 6189)", "setting": "Enterococcus sp.; strain GC 6189", "result": 2, "unit": "µg/mL"}, {"measurement": "MIC Escherichia coli (ATCC 25922)", "setting": "Escherichia coli; strain ATCC 25922", "result": 32, "unit": "µg/mL"}, {"measurement": "MIC Escherichia coli (GC 4559)", "setting": "Escherichia coli; strain GC 4559", "result": 32, "unit": "µg/mL"}, {"measurement": "MIC Escherichia coli (GC 4560)", "setting": "Escherichia coli; strain GC 4560", "result": 1, "unit": "µg/mL"}]}
